# Measurements as given in US20250199015A1, “CYCLIN-DEPENDENT KINASE 2 INHIBITORS FOR MEDICAL TREATMENT” (INCYCLIX BIO, LLC, priority 2022, published 2025).
# Marks after values point to notes of the source that are not given here.
# Tests used:
# [1] = Salt screen storage at 40° C./75% RH, XRPD form; assay type: physicochemical; conditions: ca. 24 hours
# Protocol: XRPD analysis was carried out on any isolated solids or gums as described in Example 10 below. The XRPD plate, and the isolated solids, were dried at 40° C. for ca. 24 hours and re-analyzed by XRPD. The XRPD plate was further dried at 40° C./75% RH for ca. 24 hours and XRPD analysis was repeated.
# After three days, observations were recorded and solids were isolated by centrifugation. The wet solids were analyzed by XRPD. Solids were dried at 40° C. under vacuum for 72 hours and re-analyzed by XRPD. Solids were dried at 40° C./75% RH for 18 hours and re-analyzed by XRPD.
# [2] = tested on: T47D human breast carcinoma cells; experiment: Crystal violet colony assay; assay type: cell-based; conditions: 300 nM, weeks 2-8
# Protocol: (§1) The T47D human breast carcinoma cell line was grown in RPMI-1640/1× Glutamax/1× Insulin/10% fetal bovine serum and was plated at 10,000 cells/well in Corning 6-well tissue culture treated plates. Cells were incubated at 37° C. for 24 hours prior to addition of treatment. […] Plates were collected at week 2 and 3, at week 3, 2 plates with only palbociclib were switched to combination treatment. The remaining plates were collected at weeks 5 and 8. Collection was performed by washing wells with PBS before incubating 5 minutes with 0.1% crystal violet/20% methanol. Dye was removed and wells washed 4 times with PBS before being scanned at 1200 dpi. Image J was used to count the % area and colony size for each well (FIG. 8F-I). GraphPad Prism was used for analysis. Cells treated with DMSO control retained large colonies that inhabited the majority of the well surface area from week 3 beyond (FIG. 8F).
# as §1, with “6 well tissue culture treated plates. The BT474 human breast carcinoma cell line was grown in DMEM/1× Glutamax/1× Insulin/10% fetal bovine serum and was plated at 25,000 cells/well in Corning 6 well” for “6-well”, “CDK4/6i” for “palbociclib”, “well. Graph pad” for “well (FIG. 8F-I). GraphPad Prism”, “analysis.” for “analysis. Cells treated with DMSO control retained large colonies that inhabited the majority of the well surface area from week 3 beyond (FIG. 8F).”
# The T47D human breast carcinoma cell line was grown in RPMI-1640/1× Glutamax/1× Insulin/10% fetal bovine serum and was plated at 10,000 cells/well in Corning 6 well tissue culture treated plates. Cells were incubated at 37° C. for 24 hours prior to addition of treatment. […] Plates were collected at weeks 2 and 3. Collection was performed by washing wells with PBS before incubating 5 minutes with 0.1% crystal violet/20% methanol. Dye was removed and wells washed 4 times with PBS before being scanned at 1200 dpi. Image J was used to count the percent area and colony size for each well and Graph pad was used for analysis.
# SHP77 cells = experiment: CellTiter Glo cell proliferation assay (single agent and chemotherapy combination); assay type: cell-based, human; conditions: 6 days
# Protocol: (§2) Plates returned to incubator for six additional days. On day six post dosing, plates were removed and treated with CellTiter Glo reagent following manufacturer's specifications. Plates incubated 45 minutes at room temperature and run on a Biotek luminometer with 1 sec/well detection. Results were converted to Microsoft Excel and transferred to GraphPad Prism for analysis.
# (§3) Dose curves ranged from 300 pM to 10 μM in triplicate and treatments lasted for 6 days. Plates were removed from incubator at each specified timepoint and treated with CellTiter-Glo (Promega, Inc) following manufacturer specifications. Plates were then read on CLARIOstar luminometer with 1 sec/well integration.
# (§4) Dose curves ranged from 300 pM to 10 μM in triplicate and treatments lasted for 6 days. Plates were removed from incubator at each specified timepoint and treated with CellTiter-Glo (Promega, Inc) following manufacturer specifications. Plates were then read on CLARIOstar luminometer with 1 sec/well integration. Results were converted to Microsoft Excel and transferred to GraphPad Prism for Analysis.
# H69 (NCIH69) cells = experiment: as above; assay type: cell-based, human; conditions: 6 days
# Protocol: as §2, §3, §4
# H526 cells = experiment: as above; assay type: cell-based, human; conditions: 6 days
# Protocol: as §2
# Cells were plated at 250 cells per well in white wall/clear bottom plates and incubated overnight. […] Plates returned to the incubator for six additional days. On day six post dosing, plates were removed and treated with CellTiter Glo reagent following manufacturer's specifications. Plates incubated 45 minutes at room temperature and run on a Biotek luminometer with 1 sec/well detection. Results were converted to Microsoft Excel and transferred to GraphPad Prism for analysis.
# as §3, §4
# [3] = tested on: T47D parental and therapy-resistant cells; experiment: Cell cycle by BrdU flow cytometry in therapy-resistant cells; assay type: cell-based, human
# Protocol: The therapy resistant cells were previously incubated with abemaciclib, fulvestrant, and/or palbociclib for prolonged periods to the point of developing drug resistance. Cells were plated in Corning 6 well tissue culture treated plates. Cells were treated for 7 days. Media was spiked with 10 μM BrdU prior to collection. Cells were washed in PBS, trypsinized, collected and centrifuged at 300 RCF for 5 mins. Cells were resuspended in cell culture media and transferred into a 96 well V-bottom plate with roughly 300,000 cells per well. Cells were then stained using the Near-IR Fixable Viability Stain (Invitrogen Cat. L34976) for 20 mins at room temperature, protected from light. Cells were fixed and permeabilized using eBioscience FoxP3/Transcription Factor Staining Buffer Set (Cat. 00-5523-00). DNA was denatured using 2N HCl+0.5% (v/v) Triton X-100 for 30 mins room temperature, agitating every 5-10 mins. The acid was neutralized using 0.1M Na2B4O7·10H2O (pH 8.5) followed by 0.5% BSA in PBS. Cells were then stained with BrdU antibody (Clone 3D4, BioLegend Cat. 364118) for 1 hour at room temperature. Prior to acquisition on the BD A3 Symphony, DNA was stained for 30 minutes using FxCycle Violet ReadyFlow Reagent.
# Cell staining was then conducted to monitor cellular proliferation and perform cell cycle analysis of these therapy-resistant cells. […] Similarly, abemaciclib- and fulvestrant-resistant (LYFR) cells administered abemaciclib and fulvestrant were not substantially arrested in the G1 phase (FIG. 147H).
smiles,measurement,setting,value
Cl.NS(=O)(=O)c1ccc(Nc2ncc3cc4n(c3n2)C2(CCCCC2)C(=O)NN4)cc1 [HCl Pattern 2],XRPD form after storage at 40° C./75% RH,[1],No form changes were observed
Br.NS(=O)(=O)c1ccc(Nc2ncc3cc4n(c3n2)C2(CCCCC2)C(=O)NN4)cc1 [HBr Pattern 1],XRPD form after storage at 40° C./75% RH,[1],loss of crystallinity
"CC(=O)c1c(C)c2cnc(Nc3ccc(N4CCNCC4)cn3)nc2n(C2CCCC2)c1=O [palbociclib, reference compound]",colony size and percent plate area,[2],cells expanded to cover a large percentage of the plate area
CS(=O)(=O)O.NS(=O)(=O)c1ccc(Nc2ncc3cc4n(c3n2)C2(CCCCC2)C(=O)NN4)cc1 [mesylate Pattern 4],XRPD form after storage at 40° C./75% RH,[1],converted to Pattern 1
NS(=O)(=O)c1ccc(Nc2ncc3cc4n(c3n2)C2(CCCCC2)C(=O)NN4)cc1.O=C(O)CC(O)(CC(=O)O)C(=O)O [citrate Pattern 1],XRPD form after storage at 40° C./75% RH,[1]; listed as Citric Acid Salt Pattern 1,poorly crystalline material
NS(=O)(=O)c1ccc(Nc2ncc3cc4n(c3n2)C2(CCCCC2)C(=O)NN4)cc1.O=C(O)/C=C\C(=O)O [maleate Pattern 2],XRPD form after storage at 40° C./75% RH,[1]; listed as Maleic Acid Salt Pattern 2,loss of crystallinity
"CC[C@@]1(O)C(=O)OCc2c1cc1n(c2=O)Cc2cc3ccccc3nc2-1 [camptothecin, (S)-4-ethyl-4-hydroxy-1H-pyrano[3′,4′:6,7]indolizino[1,2-b]quinoline-3,14-(4H, 12H)-dione, reference compound]","cellular proliferation, chemotherapeutic alone compared with Compound I alone",SHP77 cells,lower cellular proliferation IC50 values
same,"cellular proliferation, chemotherapeutic alone compared with Compound I alone",H69 (NCIH69) cells,lower cellular proliferation IC50 values
same,"cellular proliferation, chemotherapeutic alone compared with Compound I alone",H526 cells,lower cellular proliferation IC50 values
CS(=O)(=O)O.NS(=O)(=O)c1ccc(Nc2ncc3cc4n(c3n2)C2(CCCCC2)C(=O)NN4)cc1 [mesylate Pattern 3],XRPD form after storage at 40° C./75% RH,[1],converted to Pattern 1
NS(=O)(=O)c1ccc(Nc2ncc3cc4n(c3n2)C2(CCCCC2)C(=O)NN4)cc1.O=P(O)(O)O [phosphate Pattern 6],XRPD form after storage at 40° C./75% RH,[1],formation of amorphous material
same,XRPD form after storage at 40° C./75% RH,[1]; listed as Phosphoric Acid Salt Pattern 6,amorphous material
CS(=O)(=O)O.NS(=O)(=O)c1ccc(Nc2ncc3cc4n(c3n2)C2(CCCCC2)C(=O)NN4)cc1 [mesylate Pattern 2],XRPD form after storage at 40° C./75% RH,[1],converted to Pattern 1
NS(=O)(=O)c1ccc(Nc2ncc3cc4n(c3n2)C2(CCCCC2)C(=O)NN4)cc1.O=C(O)CC(O)(CC(=O)O)C(=O)O [citrate Pattern 2],XRPD form after storage at 40° C./75% RH,[1]; listed as Citric Acid Salt Pattern 2,new poorly crystalline pattern designated Pattern 4
NS(=O)(=O)c1ccc(Nc2ncc3cc4n(c3n2)C2(CCCCC2)C(=O)NN4)cc1.O=C(O)/C=C\C(=O)O [maleate Pattern 4],XRPD form after storage at 40° C./75% RH,[1]; listed as Maleic Acid Salt Pattern 4,converted to Pattern 6
NS(=O)(=O)c1ccc(Nc2ncc3cc4n(c3n2)C2(CCCCC2)C(=O)NN4)cc1.O=C(O)/C=C\C(=O)O [maleate Pattern 5],XRPD form after storage at 40° C./75% RH,[1]; listed as Maleic Acid Salt Pattern 5,converted to Pattern 1*
"COc1cccc2c1C(=O)c1c(O)c3c(c(O)c1C2=O)C[C@@](O)(C(=O)CO)C[C@@H]3O[C@H]1C[C@H](N)[C@H](O)[C@H](C)O1 [doxorubicin, reference compound]","cellular proliferation, chemotherapeutic alone compared with Compound I alone",SHP77 cells,better inhibition
same,"cellular proliferation, chemotherapeutic alone compared with Compound I alone",H69 (NCIH69) cells,better inhibition
same,"cellular proliferation, chemotherapeutic alone compared with Compound I alone",H526 cells,better inhibition
"CCN1CCN(Cc2ccc(Nc3ncc(F)c(-c4cc(F)c5nc(C)n(C(C)C)c5c4)n3)nc2)CC1 [abemaciclib, reference compound]",cell cycle arrest,[3]; abemaciclib-resistant (LYR) cells,substantially less frequently in the G1 phase
same,cell cycle arrest,[3]; parental (PAR) cells,arrested parental (PAR) cell lines in the G1 phase
NS(=O)(=O)c1ccc(Nc2ncc3cc4n(c3n2)C2(CCCCC2)C(=O)NN4)cc1.O=S(=O)(O)c1ccccc1 [besylate Pattern 3],XRPD form after storage at 40° C./75% RH,[1],loss in crystallinity
